Measurements from patent US10323041B2, “Bicyclic derivatives, a process for their preparation and pharmaceutical compositions containing them” (LES LABORATOIRES SERVIER, priority 2015, dated 2019).

Key:
Mcl-1 protein = Mcl-1 protein (Homo sapiens, UniProt Q07820); test: Inhibition of Mcl-1 by the fluorescence polarisation technique; type: binding; settings: Method 1 (not underlined) or Method 2 (underlined); underlining not visible; first value where cell prints two; read-out: IC50 (M) Mcl-1 FP
Summary of the method: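 Competitive FP with fluorescein-labelled peptide ligand, 5% DMSO, ~2 h at room temperature, 11-point curves, 4-parameter IC50. Method 1: 1 nM ligand, 5 nM Mcl-1 in HEPES pH 7.4 buffer; Method 2: 10 nM ligand, 10 nM Mcl-1 in phosphate pH 7.4 buffer, 50 μM unlabelled ligand as full-inhibition control.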

[1] = system: H929 multiple myeloma tumour line; test: In vitro cytotoxicity, Microculture Tetrazolium Assay on H929 cells; type: cell-based; settings: Homo sapiens, NCI-H929, exposed for 48 hours, cell viability, read-out: IC50 (M) MTT H929
Protocol: The cytotoxicity studies were carried out on the H929 multiple myeloma tumour line.
The cells are distributed onto microplates and exposed to the test compounds for 48 hours. The cell viability is then quantified by a colorimetric assay, the Microculture Tetrazolium Assay (Cancer Res., 1987, 47, 939-942).

cleaved form of PARP = test: Quantification of the cleaved form of PARP in vivo; design: species or system mice (SCID strain); settings: AMO-1 xenograft in SCID mice; cleaved PARP in tumour lysates, treated / control; intraveinous or oral routes
Protocol: The ability of the compounds of the invention to induce apoptosis, by measuring cleaved PARP levels, is evaluated in a xenograft model of AMO-1 multiple myeloma cells.
1.10^7 AMO-1 cells are grafted sub-cutaneously into immunosuppressed mice (SCID strain). 12 to 14 days after the graft, the animals are treated by intraveinous or oral routes with the various compounds. After treatment, the tumour masses are recovered and lysed, and the cleaved form of PARP is quantified in the tumour lysates.
The quantification is carried out using the “Meso Scale Discovery (MSD) ELISA platform” test, which specifically assays the cleaved form of PARP. It is expressed in the form of an activation factor corresponding to the ratio between the quantity of cleaved PARP in the treated mice divided by the quantity of cleaved PARP in the control mice.

Chain of Mcl-1 protein (Q07820 whole entry): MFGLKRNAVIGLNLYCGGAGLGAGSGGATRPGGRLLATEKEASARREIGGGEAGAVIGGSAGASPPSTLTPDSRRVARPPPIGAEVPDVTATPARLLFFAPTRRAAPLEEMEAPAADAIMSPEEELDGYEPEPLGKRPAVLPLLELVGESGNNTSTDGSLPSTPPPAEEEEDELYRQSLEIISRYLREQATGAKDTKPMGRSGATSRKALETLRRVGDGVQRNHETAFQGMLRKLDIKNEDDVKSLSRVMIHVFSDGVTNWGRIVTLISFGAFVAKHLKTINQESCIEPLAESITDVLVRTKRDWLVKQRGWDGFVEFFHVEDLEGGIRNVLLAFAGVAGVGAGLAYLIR

SMILES: COc1ccccc1-c1nccc(COc2ccccc2CC(Nc2ncnc3oc(-c4ccc(F)cc4)c(-c4ccc(OCCN5CCN(C)CC5)c(Cl)c4C)c23)C(=O)O)n1 [Example 8, N-[(5Sa)-5-{3-chloro-2-methyl-4-[2-(4-methylpiperazin-1-yl)ethoxy]phenyl}-6-(4-fluorophenyl)furo[2,3-d]pyrimidin-4-yl]-2-{[2-(2-methoxyphenyl)pyrimidin-4-yl]methoxy}-D-phenylalanine]
- IC50 (Mcl-1 protein): 6.6e-09 M
- IC50 [1]: 1.78e-08 M
- PARP fold (cleaved form of PARP): 55.4 fold

SMILES: COc1ccccc1-c1nccc(COc2ccccc2CC(Oc2cc(F)cc3oc(-c4ccc(F)cc4)c(-c4ccc(OCCN5CCN(C)CC5)c(Cl)c4C)c23)C(=O)O)n1 [Example 67, (2R)-2-{[(3Sa)-3-{3-chloro-2-methyl-4-[2-(4-methylpiperazin-1-yl)ethoxy]phenyl}-6-fluoro-2-(4-fluorophenyl)-1-benzofuran-4-yl]oxy}-3-(2-{[2-(2-methoxyphenyl)pyrimidin-4-yl]methoxy}phenyl)propanoic acid]
- IC50 (Mcl-1 protein): 1.4e-08 M
- IC50 [1]: 8.36e-08 M
- PARP fold (cleaved form of PARP): 29.3 fold

SMILES: COc1ccccc1-c1nccc(COc2ccccc2C[C@@H](Oc2ncnc3c2c(-c2ccc(OCCN4CCN(C)CC4)c(Cl)c2C)c(-c2ccc(F)cc2)n3C)C(=O)O)n1 [Example 72, (2R)-2-[5-[3-chloro-2-methyl-4-[2-(4-methylpiperazin-1-yl)ethoxy]phenyl]-6-(4-fluorophenyl)-7-methyl-pyrrolo[2,3-d]pyrimidin-4-yl]oxy-3-[2-[[2-(2-methoxyphenyl)pyrimidin-4-yl]methoxy]phenyl]propanoic acid]
- IC50 (Mcl-1 protein): 1.55e-08 M
- IC50 [1]: 3.2e-08 M
- PARP fold (cleaved form of PARP): 15.7 fold
